Data: ChEMBL document CHEMBL3576861, “Methyl 3-((6-methoxy-1,4-dihydroindeno[1,2-c]pyrazol-3-yl)amino)benzoate (GN39482) as a tubulin polymerization inhibitor identified by MorphoBase and ChemProteoBase profiling methods” (J Med Chem, 2015)
The source made the active and inactive calls. The rule behind the calls is not given here.

Key:
[1] = system: PC-3; experiment: Antiproliferative activity against human PC3 cells assessed as inhibition of cell viability after 72 hrs by MTT assay; format: functional, cell-based; settings: PC-3, 72 h
[2] = system: HeLa; experiment: Antiproliferative activity against human HeLa cells assessed as inhibition of cell viability after 72 hrs by MTT assay; format: functional, cell-based
[3] = system: HCT-116; experiment: Antiproliferative activity against human HCT116 cells assessed as inhibition of cell viability after 72 hrs by MTT assay; format: functional, cell-based; settings: HCT-116, 72 h
[4] = system: HEK293; experiment: Antiproliferative activity against HEK293 cells assessed as inhibition of cell viability after 72 hrs by MTT assay; format: cell-based; settings: Homo sapiens, HEK293, 72 h
[5] = target: T1, Tubulin (Homo sapiens) (UniProt P68371+Q9H4B7+P0DPH7+P68366+Q13509+Q71U36+P04350+Q3ZCM7+P07437+P68363+Q9BQE3+Q6PEY2+Q13885+Q9BVA1+Q9BUF5); experiment: Inhibition of tubulin polymerization in human HeLa cells assessed as reduction of microtubule formation at 100 nM after 6 hrs by DAPI staining-based immunofluorescence assay; format: cell-based
[6] = target: T1, Tubulin (Homo sapiens); experiment: Inhibition of acetylated tubulin accumulation in human HeLa cells at 1000 nM after 6 hrs by Western blot analysis; format: cell-based
[7] = system: HeLa; experiment: Cell cycle arrest in human HeLa cells assessed as accumulation at G2/M phase at 100 nM after 24 hrs by propidium iodide staining based flow cytometry; format: functional
[8] = system: HeLa; experiment: Cell cycle arrest in human HeLa cells assessed as accumulation at G2/M phase at 0.3 to 30 nM after 24 hrs by propidium iodide staining based flow cytometry; format: functional
[9] = system: HeLa; experiment: Cell cycle arrest in human HeLa cells assessed as accumulation at G2/M phase at 3 to 30 uM after 24 hrs by propidium iodide staining based flow cytometry; format: functional
[10] = target: Vascular endothelial growth factor receptor 2 (Homo sapiens) (UniProt P35968); experiment: Inhibition of N-terminal GST fusion protein human KDR cytoplasmic domain expressed in baculovirus using CSKtide as substrate at 10 uM after 1 hr by off-chip Mobility Shift Assay
Sequence of Vascular endothelial growth factor receptor 2 (Homo sapiens) (P35968 whole entry, the tested form may be a part): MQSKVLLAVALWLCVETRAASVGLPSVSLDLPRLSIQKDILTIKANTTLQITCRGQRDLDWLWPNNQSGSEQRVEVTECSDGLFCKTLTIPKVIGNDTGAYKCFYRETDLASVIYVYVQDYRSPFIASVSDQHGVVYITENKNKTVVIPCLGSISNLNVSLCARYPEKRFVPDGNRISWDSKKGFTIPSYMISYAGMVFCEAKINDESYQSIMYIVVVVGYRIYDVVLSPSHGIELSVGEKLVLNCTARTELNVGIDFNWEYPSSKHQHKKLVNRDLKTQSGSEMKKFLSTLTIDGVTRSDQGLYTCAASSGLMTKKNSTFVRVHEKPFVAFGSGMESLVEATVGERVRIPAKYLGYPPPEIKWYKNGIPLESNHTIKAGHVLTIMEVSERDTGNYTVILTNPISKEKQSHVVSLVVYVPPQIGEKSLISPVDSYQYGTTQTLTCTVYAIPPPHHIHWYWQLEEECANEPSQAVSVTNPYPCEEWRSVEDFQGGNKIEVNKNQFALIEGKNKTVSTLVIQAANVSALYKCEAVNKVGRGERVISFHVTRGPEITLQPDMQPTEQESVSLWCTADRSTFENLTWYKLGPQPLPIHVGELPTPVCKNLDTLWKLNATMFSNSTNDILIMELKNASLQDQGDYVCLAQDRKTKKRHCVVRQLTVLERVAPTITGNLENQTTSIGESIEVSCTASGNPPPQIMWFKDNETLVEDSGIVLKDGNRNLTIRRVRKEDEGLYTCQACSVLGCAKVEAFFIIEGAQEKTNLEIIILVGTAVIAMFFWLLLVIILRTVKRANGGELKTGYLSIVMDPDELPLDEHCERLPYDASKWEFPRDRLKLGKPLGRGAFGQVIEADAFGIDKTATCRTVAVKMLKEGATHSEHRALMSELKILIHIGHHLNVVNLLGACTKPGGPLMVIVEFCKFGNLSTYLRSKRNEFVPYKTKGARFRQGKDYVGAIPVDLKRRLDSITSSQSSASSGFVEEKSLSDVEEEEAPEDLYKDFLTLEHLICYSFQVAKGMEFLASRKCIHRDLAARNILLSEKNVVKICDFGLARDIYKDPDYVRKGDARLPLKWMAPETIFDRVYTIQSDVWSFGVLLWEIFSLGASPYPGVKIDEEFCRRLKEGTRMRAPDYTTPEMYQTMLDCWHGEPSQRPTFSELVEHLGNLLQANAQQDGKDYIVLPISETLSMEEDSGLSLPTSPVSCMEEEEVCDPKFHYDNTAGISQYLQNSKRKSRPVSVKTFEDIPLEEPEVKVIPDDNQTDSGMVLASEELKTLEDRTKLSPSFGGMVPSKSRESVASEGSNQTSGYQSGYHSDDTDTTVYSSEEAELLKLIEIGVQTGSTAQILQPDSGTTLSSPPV

[11] = system: Candida albicans; experiment: Antimicrobial activity against Candida albicans JCM1542 at 100 nM after 24 hrs by standard microdilution method; format: functional, organism-based
[12] = target: T2, Cyclin-dependent kinase 2/cyclin E1 (Homo sapiens) (UniProt P24864+P24941); experiment: Inhibition of N-terminal GST-tagged human full length CDK2/Cyclin E1 expressed in baculovirus using histone H1 as substrate at 10 uM after 1 hr by off-chip Mobility Shift Assay
[13] = target: Vascular endothelial growth factor receptor 2 (Homo sapiens) (UniProt P35968); experiment: Inhibition of N-terminal GST fusion protein human KDR cytoplasmic domain expressed in baculovirus using CSKtide as substrate at 0.1 uM after 1 hr by off-chip Mobility Shift Assay
[14] = system: Escherichia coli; experiment: Antimicrobial activity against Escherichia coli HO141 at 100 nM after 24 hrs by standard microdilution method; format: functional, organism-based
[15] = target: T1, Tubulin (Homo sapiens); experiment: Inhibition of tubulin polymerization in human HeLa cells assessed as reduction of microtubule formation at 30 nM after 6 hrs by DAPI staining-based immunofluorescence assay; format: cell-based
[16] = system: Aspergillus fumigatus; experiment: Antimicrobial activity against Aspergillus fumigatus Af293 at 100 nM after 48 hrs by standard microdilution method; format: functional
[17] = system: Plasmodium falciparum; experiment: Antimalarial activity against Plasmodium falciparum 3D7 infected in human erythrocytes assessed as LDH activity at 100 nM after 72 hrs by plate reader analysis; format: functional, organism-based
[18] = target: Platelet-derived growth factor receptor beta (Homo sapiens) (UniProt P09619); experiment: Inhibition of N-terminal GST fusion protein human PDGFR-beta cytoplasmic domain expressed in baculovirus using CSKtide as substrate at 0.1 uM after 1 hr by off-chip Mobility Shift Assay
Sequence of Platelet-derived growth factor receptor beta (Homo sapiens) (P09619 whole entry, the tested form may be a part): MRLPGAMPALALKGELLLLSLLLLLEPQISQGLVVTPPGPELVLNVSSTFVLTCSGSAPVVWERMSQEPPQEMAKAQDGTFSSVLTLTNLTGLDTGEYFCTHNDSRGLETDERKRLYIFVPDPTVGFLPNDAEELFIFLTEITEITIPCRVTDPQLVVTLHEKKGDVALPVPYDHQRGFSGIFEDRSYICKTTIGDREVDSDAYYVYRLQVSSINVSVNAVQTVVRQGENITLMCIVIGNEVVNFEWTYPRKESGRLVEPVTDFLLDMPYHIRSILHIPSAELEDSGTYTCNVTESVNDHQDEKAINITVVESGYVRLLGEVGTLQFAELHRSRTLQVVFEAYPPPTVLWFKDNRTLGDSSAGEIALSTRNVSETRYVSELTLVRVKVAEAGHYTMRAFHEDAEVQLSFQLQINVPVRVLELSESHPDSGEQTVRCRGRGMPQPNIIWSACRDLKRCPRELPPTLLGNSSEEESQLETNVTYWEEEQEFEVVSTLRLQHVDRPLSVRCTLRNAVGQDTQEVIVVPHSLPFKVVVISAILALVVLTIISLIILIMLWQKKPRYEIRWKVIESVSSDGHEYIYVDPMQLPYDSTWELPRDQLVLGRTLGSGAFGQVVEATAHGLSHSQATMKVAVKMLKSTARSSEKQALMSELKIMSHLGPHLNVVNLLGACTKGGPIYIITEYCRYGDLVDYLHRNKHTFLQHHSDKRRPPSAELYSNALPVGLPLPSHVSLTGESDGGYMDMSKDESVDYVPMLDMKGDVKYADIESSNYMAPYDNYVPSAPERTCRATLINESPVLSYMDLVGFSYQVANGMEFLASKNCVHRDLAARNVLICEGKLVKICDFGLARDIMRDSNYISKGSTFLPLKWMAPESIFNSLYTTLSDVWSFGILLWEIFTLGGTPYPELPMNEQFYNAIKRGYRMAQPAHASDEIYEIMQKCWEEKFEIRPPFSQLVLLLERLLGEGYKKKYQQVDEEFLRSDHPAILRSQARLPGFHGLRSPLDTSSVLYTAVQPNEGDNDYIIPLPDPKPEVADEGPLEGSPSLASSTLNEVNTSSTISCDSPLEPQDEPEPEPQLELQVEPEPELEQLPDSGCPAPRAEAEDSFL

[19] = target: Tubulin (Sus scrofa) (UniProt P02554+P02550); experiment: Inhibition of porcine tubulin polymerization measured every min for 1 hr by fluorescence analysis; format: protein assay
Sequence of Tubulin (Sus scrofa) (P02550 whole entry, looked up): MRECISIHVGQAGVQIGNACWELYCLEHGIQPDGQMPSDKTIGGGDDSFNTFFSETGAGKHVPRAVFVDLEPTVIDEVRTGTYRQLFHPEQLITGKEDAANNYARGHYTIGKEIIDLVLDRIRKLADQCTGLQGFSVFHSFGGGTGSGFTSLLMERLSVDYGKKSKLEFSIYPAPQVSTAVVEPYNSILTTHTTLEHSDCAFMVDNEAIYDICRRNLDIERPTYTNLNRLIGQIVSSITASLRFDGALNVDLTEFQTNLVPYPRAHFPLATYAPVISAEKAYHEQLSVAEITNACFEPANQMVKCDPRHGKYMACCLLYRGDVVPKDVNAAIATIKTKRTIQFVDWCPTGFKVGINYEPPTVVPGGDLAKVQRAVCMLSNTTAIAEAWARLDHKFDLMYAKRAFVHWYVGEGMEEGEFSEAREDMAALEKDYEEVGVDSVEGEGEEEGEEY
Sequence of Tubulin (Sus scrofa) (P02554 whole entry, looked up): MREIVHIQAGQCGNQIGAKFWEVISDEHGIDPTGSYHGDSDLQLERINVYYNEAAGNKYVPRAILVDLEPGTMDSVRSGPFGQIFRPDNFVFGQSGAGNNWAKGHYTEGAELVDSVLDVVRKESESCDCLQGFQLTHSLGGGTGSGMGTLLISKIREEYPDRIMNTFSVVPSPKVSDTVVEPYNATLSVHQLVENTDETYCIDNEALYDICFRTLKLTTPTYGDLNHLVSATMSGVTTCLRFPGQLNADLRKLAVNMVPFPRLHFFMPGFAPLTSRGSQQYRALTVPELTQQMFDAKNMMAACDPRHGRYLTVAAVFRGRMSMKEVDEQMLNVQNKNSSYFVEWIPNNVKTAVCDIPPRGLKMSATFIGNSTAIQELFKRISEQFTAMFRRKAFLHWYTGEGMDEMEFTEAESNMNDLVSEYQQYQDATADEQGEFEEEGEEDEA

[20] = system: Pyricularia oryzae; experiment: Antimicrobial activity against Magnaporthe oryzae Kita-1 at 100 nM after 48 hrs by standard microdilution method; format: functional, organism-based
[21] = target: Platelet-derived growth factor receptor beta (Homo sapiens) (UniProt P09619); experiment: Inhibition of N-terminal GST fusion protein human PDGFR-beta cytoplasmic domain expressed in baculovirus using CSKtide as substrate at 10 uM after 1 hr by off-chip Mobility Shift Assay
[22] = target: T2, Cyclin-dependent kinase 2/cyclin E1 (Homo sapiens); experiment: Inhibition of N-terminal GST-tagged human full length CDK2/Cyclin E1 expressed in baculovirus using histone H1 as substrate at 0.1 uM after 1 hr by off-chip Mobility Shift Assay
[23] = target: Epidermal growth factor receptor (Homo sapiens) (UniProt P00533); experiment: Inhibition of N-terminal GST fusion protein human EGFR cytoplasmic domain expressed in baculovirus using Srctide as substrate at 0.1 uM after 1 hr by off-chip Mobility Shift Assay
Sequence of Epidermal growth factor receptor (Homo sapiens) (P00533 whole entry, the tested form may be a part): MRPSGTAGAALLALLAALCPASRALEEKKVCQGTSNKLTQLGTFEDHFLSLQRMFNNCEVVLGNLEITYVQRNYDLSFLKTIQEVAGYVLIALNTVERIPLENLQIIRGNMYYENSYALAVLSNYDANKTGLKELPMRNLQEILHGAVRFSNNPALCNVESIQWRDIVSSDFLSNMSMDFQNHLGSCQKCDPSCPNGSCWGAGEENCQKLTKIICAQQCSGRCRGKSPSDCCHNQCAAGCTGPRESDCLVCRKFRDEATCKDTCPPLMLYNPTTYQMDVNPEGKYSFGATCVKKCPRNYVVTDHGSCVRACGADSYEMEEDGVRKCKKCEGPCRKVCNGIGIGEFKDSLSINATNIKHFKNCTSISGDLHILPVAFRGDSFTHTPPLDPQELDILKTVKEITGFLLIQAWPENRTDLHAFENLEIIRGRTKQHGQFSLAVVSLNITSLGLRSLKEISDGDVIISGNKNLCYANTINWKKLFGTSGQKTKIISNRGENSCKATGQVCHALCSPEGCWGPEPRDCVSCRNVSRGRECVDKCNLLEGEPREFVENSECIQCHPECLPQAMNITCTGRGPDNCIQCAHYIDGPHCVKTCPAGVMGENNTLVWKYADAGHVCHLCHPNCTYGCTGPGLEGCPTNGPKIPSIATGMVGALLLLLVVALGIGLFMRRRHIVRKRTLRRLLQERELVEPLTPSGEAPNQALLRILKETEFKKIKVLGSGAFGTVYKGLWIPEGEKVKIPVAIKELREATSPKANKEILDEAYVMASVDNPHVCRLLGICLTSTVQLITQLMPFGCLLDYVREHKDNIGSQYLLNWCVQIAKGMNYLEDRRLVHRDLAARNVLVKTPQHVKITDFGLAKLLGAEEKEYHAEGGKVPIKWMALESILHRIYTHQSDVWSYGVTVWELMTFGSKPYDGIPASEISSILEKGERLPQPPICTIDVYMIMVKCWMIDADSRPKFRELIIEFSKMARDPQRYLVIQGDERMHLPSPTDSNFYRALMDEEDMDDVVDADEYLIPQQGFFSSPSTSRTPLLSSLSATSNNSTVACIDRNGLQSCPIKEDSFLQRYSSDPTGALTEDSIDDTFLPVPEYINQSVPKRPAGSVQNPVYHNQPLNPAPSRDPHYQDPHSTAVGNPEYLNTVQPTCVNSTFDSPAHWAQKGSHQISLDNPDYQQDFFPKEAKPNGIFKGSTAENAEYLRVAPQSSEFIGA

[24] = target: T3, Serine/threonine-protein kinase Chk1 (Homo sapiens) (UniProt O14757); experiment: Inhibition of human full length N-terminal GST fusion protein CHK1 expressed in baculovirus using CHKtide as substrate at 0.1 uM after 1 hr by off-chip Mobility Shift Assay
T3 sequence (whole entry): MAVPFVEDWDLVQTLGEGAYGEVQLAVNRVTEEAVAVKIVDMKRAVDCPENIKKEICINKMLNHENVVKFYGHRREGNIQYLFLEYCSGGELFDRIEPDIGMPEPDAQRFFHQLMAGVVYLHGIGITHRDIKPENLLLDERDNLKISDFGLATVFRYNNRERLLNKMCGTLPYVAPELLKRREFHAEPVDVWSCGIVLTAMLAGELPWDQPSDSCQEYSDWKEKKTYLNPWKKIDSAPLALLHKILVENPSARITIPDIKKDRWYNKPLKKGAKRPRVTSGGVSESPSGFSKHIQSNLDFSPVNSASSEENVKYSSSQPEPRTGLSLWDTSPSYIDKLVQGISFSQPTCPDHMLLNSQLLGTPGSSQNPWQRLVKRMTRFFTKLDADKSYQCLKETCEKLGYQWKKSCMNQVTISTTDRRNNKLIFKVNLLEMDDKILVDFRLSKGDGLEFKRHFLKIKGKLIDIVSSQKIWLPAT

[25] = system: Staphylococcus aureus; experiment: Antimicrobial activity against Staphylococcus aureus 209 at 100 nM after 24 hrs by standard microdilution method; format: functional, organism-based
[26] = target: CDK4/Cyclin D3 (Homo sapiens) (UniProt P11802+P30281); experiment: Inhibition of human full length N-terminal GST-fusion protein CDK4/GST-tagged Cyclin D3 expressed in baculovirus using DYRKtide-F as substrate at 0.1 uM after 1 hr by off-chip Mobility Shift Assay
[27] = target: T1, Tubulin (Homo sapiens); experiment: Inhibition of acetylated tubulin accumulation in human HeLa cells at 1 to 100 nM after 6 hrs by Western blot analysis; format: cell-based
[28] = target: T1, Tubulin (Homo sapiens); experiment: Inhibition of tubulin polymerization in human HeLa cells assessed as reduction of microtubule formation at 300 nM after 6 hrs by DAPI staining-based immunofluorescence assay; format: cell-based
[29] = target: T1, Tubulin (Homo sapiens); experiment: Inhibition of acetylated tubulin accumulation in human HeLa cells at 300 nM after 6 hrs by Western blot analysis; format: cell-based
[30] = target: T1, Tubulin (Homo sapiens); experiment: Inhibition of tubulin polymerization in human HeLa cells assessed as reduction of microtubule formation at 1000 nM after 6 hrs by DAPI staining-based immunofluorescence assay; format: cell-based

Structure (SMILES)	IC50 [1]	IC50 [2]	IC50 [3]	IC50 [4]	other results
Oc1ccc2c(c1)Cc1c(Nc3ccccc3)n[nH]c1-2	> 100 nM	> 100 nM	> 100 nM	> 100 nM	–
CCOc1ccc2c(c1)Cc1c(Nc3ccccc3)n[nH]c1-2	60.2 nM	20.4 nM	56.8 nM	55.6 nM	–
CC(=O)O[C@H]1C(=O)[C@@]2(C)[C@H]([C@H](OC(=O)c3ccccc3)[C@]3(O)C[C@H](OC(=O)[C@H](O)[C@@H](NC(=O)c4ccccc4)c4ccccc4)C(C)=C1C3(C)C)[C@]1(OC(C)=O)CO[C@@H]1C[C@@H]2O	–	–	–	–	inhibition [5]: inactive
COc1cccc(Nc2n[nH]c3c2Cc2ccccc2-3)c1	> 100 nM	> 100 nM	> 100 nM	> 100 nM	inhibition [6]: inactive
COc1cccc(Nc2n[nH]c3c2Cc2cc(OC)ccc2-3)c1	4.7 nM	2.8 nM	6.53 nM	8.8 nM	–
COc1ccc2c(c1)Cc1c(Nc3cccc(O)c3)n[nH]c1-2	8.6 nM	7.1 nM	10.9 nM	> 100 nM	–
COc1cc(Nc2n[nH]c3c2Cc2cc(OC)ccc2-3)cc(OC)c1	7 nM	3.2 nM	7.4 nM	4.6 nM	–
COc1cc2c(c(OC)c1OC)-c1ccc(OC)c(=O)cc1[C@@H](NC(C)=O)CC2	–	–	–	–	Activity [7]: Active
COc1ccc2c(c1)Cc1c(Nc3ccc(OC)c(OC)c3)n[nH]c1-2	90.9 nM	> 100 nM	86.3 nM	> 100 nM	–
COc1ccc2c(c1)Cc1c(Nc3ccccc3O)n[nH]c1-2	> 100 nM	> 100 nM	> 100 nM	> 100 nM	–
c1ccc(Nc2n[nH]c3c2Cc2ccccc2-3)cc1	> 100 nM	> 100 nM	> 100 nM	> 100 nM	Activity [8]: inactive; Activity [9]: inactive
COc1ccc2c(c1)Cc1c(Nc3cccc(C(=O)O)c3)n[nH]c1-2	> 100 nM	> 100 nM	> 100 nM	> 100 nM	–
COC(=O)c1cccc(Nc2n[nH]c3c2Cc2cc(OC)ccc2-3)c1	2.64 nM	2.47 nM	2.7 nM	2.2 nM	Activity [8]: Active; inhibition [10]: > 82%; Activity [11]: inactive; inhibition [12]: > 82%; inhibition [13]: inactive; Activity [14]: inactive; inhibition [15]: Active; Activity [16]: inactive; Activity [17]: inactive; inhibition [18]: inactive; inhibition [19]: Dose-dependent effect; Activity [20]: inactive; inhibition [21]: > 82%; inhibition [22]: inactive; inhibition [23]: inactive; inhibition [24]: inactive; Activity [25]: inactive; inhibition [26]: inactive; inhibition [27]: Active
COc1ccc2c(c1)Cc1c(Nc3cccc(OCC(C)C)c3)n[nH]c1-2	50.5 nM	19.9 nM	56.6 nM	25.5 nM	inhibition [28]: Active; inhibition [29]: Active
COc1ccc2c(c1)Cc1c-2n[nH]c1Nc1ccccc1	35.6 nM	8.9 nM	26.6 nM	53.6 nM	inhibition [30]: inactive; inhibition [6]: inactive
COc1ccc2c(c1)Cc1c(Nc3ccccc3OC)n[nH]c1-2	> 100 nM	32 nM	86.2 nM	> 100 nM	–
COc1ccc(Nc2n[nH]c3c2Cc2cc(OC)ccc2-3)cc1	> 100 nM	> 100 nM	> 100 nM	> 100 nM	–
